Laboratory results as given in PMC9688530, “Development of Ic-ELISA and Colloidal Gold Lateral Flow Immunoassay for the Determination of Cypermethrin in Agricultural Samples” (Biosensors, 2022).
Converted amounts (≈) assume the structure as drawn. “And” between values parts separate entries of the source, which are not always exact repeats. Equal entries are not always repeated.

How the values were obtained:
monoclonal antibody = tested on: monoclonal antibody; set-up: method as in doi:10.1080/09540105.2013.794328; settings: ic-ELISA based on a monoclonal antibody; cited from earlier work
antibody against CYP = tested on: antibody against CYP; set-up: method as in PMID 26965575; settings: cited from earlier work
anti-CYP mAb 2G9A8 = assay: homologous ic-ELISA, hapten 1 coating antigen, mAb 2G9A8; type: binding, mouse; settings: hapten 1 as coating antigen
Description: (§1) The ic-ELISA procedure was executed according to previous studies. Each well of the ELISA plate was coated with 100 μL of coating antigen diluted with carbonate buffer (0.05 mol/L, pH 9.6) at 4 °C overnight. After washing three times with phosphate-buffered saline (PBS, 0.01 mol/L, pH 7.4) containing 1‰ Tween-20, the wells were blocked with 200 μL of 5% skim milk powder in PBS at 37 °C for two hours. After the same washing procedure, 50 μL of CYP standard solution and 50 μL of mAb were pipetted into each well and incubated at 37 °C for one hour. After washing five times, 100 μL per well of 0.5‰ horseradish peroxidase-labeled goat anti-mouse IgG antibody in PBS was added and incubated at 37 °C for one hour. After the wells were washed five times, 100 μL per well of fresh substrate solution (0.1 mg/mL 3,3′,5,5′-tetramethylbenzidine and 0.024‰ H2O2 in 0.1 M citrate acid buffer) was added to react at 37 °C for 15 min. Then, 50 μL per well of 0.2 mol/L H2SO4 was used to stop the reaction, and the absorbances were read at 450 nm with a microplate reader.
(§2) After five immunizations, the anti-serum of five mice was collected to determine the serum titer. All mouse serum had high titers ranging from 1:64,000 to 1:256,000. […] Then, the sensitivity of these monoclonal antibodies was evaluated by homologous ic-ELISA. […] The subtype of mAb 2G7H9 was determined as IgG2b by a kit. […]

[1] = set-up: method as in doi:10.1016/j.cropro.2009.01.003; settings: cited from earlier work
anti-CYP mAb 1E7D5 = assay: homologous ic-ELISA, hapten 1 coating antigen, mAb 1E7D5; type: binding, mouse; settings: hapten 1 as coating antigen
Description: as §1, §2

[2] = set-up: method as in doi:10.11895/j.issn.0253-3820.160428; settings: cited from earlier work

Question: With CC1(C)C(C=C(Cl)Cl)C1C(=O)OC(C#N)c1cccc(Oc2ccccc2)c1 (stereo not drawn) [CYP, Cypermethrin] as the compound, how does the IC50 (monoclonal antibody) read?
Answer: The IC50 was 1.7 ng/mL (≈ 4.08 nM).

Question: And the IC50 (antibody against CYP)?
Answer: The IC50 was 2.59 ng/mL and 2.6 ng/mL.

Question: What about the IC50 (anti-CYP mAb 2G9A8) of the same compound?
Answer: The IC50 was 176 ng/mL (≈ 423 nM).

Question: What about the minimum detection concentration [1] of the same compound?
Answer: Its minimum detection concentration is 800 ng/mL.

Question: What about the IC50 (anti-CYP mAb 1E7D5) of the same compound?
Answer: The IC50 was 314 ng/mL (≈ 754 nM).

Question: What about the sensitivity [2] of the same compound?
Answer: Its sensitivity is 5000 ng/mL.
